Data on six compounds can be found in PubChem BioAssay (NCI).

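Each compound was tested at five concentrations against cells in 96-well plates for 48 hours. GI50 marks 50% less growth. Definition used: TGI = concentration required for complete inhibition of growth.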

Some test systems named below: IGROV1 ovarian; M14 melanoma; NCI-H226 lung; NCI-H460 lung; NCI-H522 lung; PC-3 prostate; RPMI-8226 leukemia; SNB-19 CNS; U251 CNS; UO-31 renal.
Common to all, as to test: NCI-60 cell line screen, 48 h

Regarding `Cc1ccc(-c2c(C#N)[n+](=O)c3cc(F)c(F)cc3n2[O-])cc1`, the GI50 was 3.59 µM in the test with IGROV1 ovarian; 2.18 µM in the test with M14 melanoma; 15.7 µM with NCI-H226 lung; 12.2 µM in the test with NCI-H460 lung; 3.43 µM in the test on NCI-H522 lung; 1.43 µM with PC-3 prostate. Besides, the GI50 in the test with RPMI-8226 leukemia is 1.49 µM; in the test with SNB-19 CNS it was 18.6 µM; in the test with U251 CNS, 1.43 µM; in the test on UO-31 renal, 9.79 µM. Further, the TGI with IGROV1 ovarian was > 100 µM; in the test on M14 melanoma, 5.73 µM; in the test on NCI-H226 lung, 32.3 µM; in the test on NCI-H460 lung, 30.3 µM; with NCI-H522 lung, 76.9 µM; in the test on PC-3 prostate it was 3.35 µM. The TGI in the test with RPMI-8226 leukemia turned out to be 6.99 µM; in the test on SNB-19 CNS it was 34.9 µM; in the test on U251 CNS, 2.94 µM; with UO-31 renal, 37.7 µM.
Turning to `CC(CN1CC(=O)NC(=O)C1)N1CC(=O)NC(=O)C1` (centres undefined), the TGI in the test with IGROV1 ovarian was > 725 µM; in the test with M14 melanoma it was > 750 µM; in the test on NCI-H226 lung, 505 µM; in the test with NCI-H460 lung, > 622 µM; with NCI-H522 lung, > 724 µM; in the test on PC-3 prostate, > 750 µM. Moreover, the TGI in the test on RPMI-8226 leukemia, with SNB-19 CNS, with U251 CNS and in the test with UO-31 renal was > 750 µM each time.
On to `O=C1OCC(c2ccc(O)cc2)=C1c1cc(O)c(O)c(O)c1`, for which the GI50 in the test on IGROV1 ovarian, in the test on M14 melanoma, with NCI-H226 lung, in the test on NCI-H460 lung, with NCI-H522 lung and with PC-3 prostate was > 100 µM throughout. The GI50 in the test with RPMI-8226 leukemia is 44.1 µM; in the test with SNB-19 CNS it was > 100 µM; with U251 CNS it was 31.4 µM; in the test with UO-31 renal it was > 100 µM. For the same compound, the TGI in the test on IGROV1 ovarian, with M14 melanoma, in the test with NCI-H226 lung, in the test on NCI-H460 lung, in the test with NCI-H522 lung and with PC-3 prostate was > 100 µM each time. In addition, the TGI with RPMI-8226 leukemia, with SNB-19 CNS, in the test with U251 CNS and in the test with UO-31 renal was > 100 µM each time.
As for `COc1cc(OC)c(/C=C/C(=O)c2ccc(Nc3ncnc4ccccc34)cc2)c(OC)c1`, the GI50 with IGROV1 ovarian was 1.93 µM; with M14 melanoma, 0.575 µM; with NCI-H226 lung, 1.03 µM; in the test on NCI-H460 lung it was 0.394 µM; in the test on NCI-H522 lung, 0.296 µM; in the test on PC-3 prostate, 0.707 µM. Besides, the GI50 was 0.687 µM in the test on RPMI-8226 leukemia, 1.23 µM in the test on SNB-19 CNS, 0.686 µM with U251 CNS and 1.44 µM with UO-31 renal. Also, the TGI was 20.3 µM with IGROV1 ovarian; 2.5 µM in the test with M14 melanoma; 3 µM in the test on NCI-H226 lung; 2.01 µM with NCI-H460 lung; 1.44 µM in the test on NCI-H522 lung; 8.33 µM with PC-3 prostate. Moreover, the TGI in the test with SNB-19 CNS was 14.5 µM; with U251 CNS, 2.73 µM; with UO-31 renal it was 3.99 µM.
On to `Cc1cc2c(cc1C)[n+](=O)c(C(=O)/C=C/c1ccc3c(c1)OCO3)c(C)n2[O-]`, for which the TGI is > 81.5 µM in the test with IGROV1 ovarian; > 100 µM in the test with M14 melanoma; > 100 µM in the test with NCI-H226 lung; > 100 µM with NCI-H460 lung; 79.4 µM with NCI-H522 lung; > 100 µM in the test on PC-3 prostate. The TGI in the test with RPMI-8226 leukemia was > 100 µM; with SNB-19 CNS, 79.3 µM; with U251 CNS, 62.7 µM; in the test with UO-31 renal it was > 100 µM.
For the compound `CCn1c(-c2c(Cl)cc(O)cc2Cl)cc2c(Cl)cc(O)cc21`, the TGI was 12.9 µM with IGROV1 ovarian; 91.5 µM with M14 melanoma; > 100 µM in the test with NCI-H226 lung; 18.4 µM in the test on NCI-H460 lung; 6.68 µM in the test with NCI-H522 lung; > 100 µM with PC-3 prostate. The TGI in the test with RPMI-8226 leukemia was 87.6 µM; in the test on SNB-19 CNS, 28.3 µM; in the test with U251 CNS it was 17 µM; with UO-31 renal, > 100 µM.
